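Step 1: Grow cells in 96-well plates. Step 2: Expose to compound for 48 hours at 5 concentrations. Step 3: Interpolate endpoints linearly; if unreached, use highest concentration. GI50: concentration for 50% inhibition of growth.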 Active and inactive are the calls of the source. No stated cut-off is given here; in the data, active = GI50 up to about 1.1 µM and inactive = higher.
How the values were obtained:
Assay in all cases: DTP human tumour cell line panel, 48 h
ACHN = system: ACHN
NCI-H522 = system: NCI-H522
COLO 205 = system: COLO 205
M14 = system: M14
UO-31 = system: UO-31
UACC-62 = system: UACC-62
DLD-1 = system: DLD-1
CAKI-1 = system: CAKI-1
M19-MEL = system: M19-MEL
SK-MEL-5 = system: SK-MEL-5
OVCAR-3 = system: OVCAR-3
DMS-273 = system: DMS-273
KM-20L2 = system: KM-20L2
HT-29 = system: HT-29
U-251 = system: U-251
HCC 2998 = system: HCC 2998
NCI-H23 = system: NCI-H23
EKVX = system: EKVX
UACC-257 = system: UACC-257
OVCAR-4 = system: OVCAR-4
SW-620 = system: SW-620
IGROV-1 = system: IGROV-1
TK-10 = system: TK-10
SN12C = system: SN12C
LXFL 529 = system: LXFL 529
A549 = system: A549
KM12 = system: KM12
SK-MEL-28 = system: SK-MEL-28
HOP-62 = system: HOP-62
HOP-92 = system: HOP-92
LOX IMVI = system: LOX IMVI
HCT-15 = system: HCT-15
SF-295 = system: SF-295
SF-268 = system: SF-268
SNB-19 = system: SNB-19
OVCAR-8 = system: OVCAR-8
SK-OV-3 = system: SK-OV-3
NCI-H460 = system: NCI-H460
SK-MEL-2 = system: SK-MEL-2
786-0 = system: 786-0
SNB-75 = system: SNB-75
DMS-114 = system: DMS-114
RXF 393 = system: RXF 393
Malme-3M = system: Malme-3M
SF-539 = system: SF-539
NCI-H226 = system: NCI-H226
HL-60 = system: HL-60
SNB-78 = system: SNB-78
OVCAR-5 = system: OVCAR-5
SR = system: SR
HCT-116 = system: HCT-116
RPMI-8226 = system: RPMI-8226
K562 = system: K562
CCRF-CEM = system: CCRF-CEM
MOLT-4 = system: MOLT-4
A498 = system: A498
MCF7 = system: MCF7
NCI/ADR-RES = system: NCI/ADR-RES
PC-3 = system: PC-3
BT-549 = system: BT-549
MDA-MB-435 = system: MDA-MB-435
MDA-MB-231 = system: MDA-MB-231
DU-145 = system: DU-145
T47D = system: T47D
Hs-578T = system: Hs-578T
MDA-N = system: MDA-N

Cc1ccc(C(N)=O)cc1/N=N/N(C)C
GI50 (ACHN): > 100 µM (inactive) | GI50 (NCI-H522): > 100 µM (inactive) | GI50 (COLO 205): > 100 µM (inactive) | GI50 (M14): > 100 µM (inactive) | GI50 (UO-31): > 100 µM (inactive) | GI50 (UACC-62): > 100 µM (inactive) | GI50 (DLD-1): > 100 µM (inactive) | GI50 (CAKI-1): > 100 µM (inactive) | GI50 (M19-MEL): > 100 µM (inactive) | GI50 (SK-MEL-5): > 100 µM (inactive) | GI50 (OVCAR-3): > 100 µM (inactive) | GI50 (DMS-273): > 100 µM (inactive) | GI50 (KM-20L2): > 100 µM (inactive) | GI50 (HT-29): > 100 µM (inactive) | GI50 (U-251): > 100 µM (inactive) | GI50 (HCC 2998): > 100 µM (inactive) | GI50 (NCI-H23): > 100 µM (inactive) | GI50 (EKVX): > 100 µM (inactive) | GI50 (UACC-257): > 100 µM (inactive) | GI50 (OVCAR-4): > 100 µM (inactive) | GI50 (SW-620): > 100 µM (inactive) | GI50 (IGROV-1): > 100 µM (inactive) | GI50 (TK-10): > 100 µM (inactive) | GI50 (SN12C): > 100 µM (inactive) | GI50 (LXFL 529): > 100 µM (inactive) | GI50 (A549): > 100 µM (inactive) | GI50 (KM12): > 100 µM (inactive) | GI50 (SK-MEL-28): > 100 µM (inactive) | GI50 (HOP-62): > 100 µM (inactive) | GI50 (HOP-92): > 100 µM (inactive) | GI50 (LOX IMVI): > 100 µM (inactive) | GI50 (HCT-15): > 100 µM | GI50 (SF-295): > 100 µM (inactive) | GI50 (SF-268): > 100 µM (inactive) | GI50 (SNB-19): > 100 µM (inactive) | GI50 (OVCAR-8): > 100 µM (inactive) | GI50 (SK-OV-3): > 100 µM (inactive) | GI50 (NCI-H460): > 100 µM (inactive) | GI50 (SK-MEL-2): > 100 µM (inactive) | GI50 (786-0): > 100 µM (inactive)

CC/C=C\C/C=C\C1CC(=O)NCCCNCCCCN1 (centres undefined)
GI50 (NCI-H522): 55.3 µM (inactive) | GI50 (COLO 205): > 100 µM (inactive) | GI50 (M14): 48 µM (inactive) | GI50 (UO-31): > 100 µM (inactive) | GI50 (DLD-1): > 100 µM (inactive) | GI50 (CAKI-1): > 100 µM (inactive) | GI50 (M19-MEL): > 100 µM (inactive) | GI50 (SK-MEL-5): > 100 µM (inactive) | GI50 (SNB-75): > 100 µM (inactive) | GI50 (DMS-273): > 100 µM (inactive) | GI50 (KM-20L2): > 100 µM (inactive) | GI50 (HT-29): > 100 µM (inactive) | GI50 (U-251): > 100 µM (inactive) | GI50 (HCC 2998): > 100 µM (inactive) | GI50 (NCI-H23): > 100 µM (inactive) | GI50 (EKVX): > 100 µM (inactive) | GI50 (DMS-114): > 100 µM (inactive) | GI50 (RXF 393): 4.83 µM (inactive) | GI50 (Malme-3M): 15.6 µM (inactive) | GI50 (UACC-257): > 100 µM (inactive) | GI50 (OVCAR-4): > 100 µM (inactive) | GI50 (SW-620): > 100 µM (inactive) | GI50 (SF-539): > 100 µM (inactive) | GI50 (NCI-H226): 59.7 µM (inactive) | GI50 (TK-10): > 100 µM (inactive) | GI50 (SN12C): > 100 µM (inactive) | GI50 (LXFL 529): > 100 µM (inactive) | GI50 (A549): > 100 µM (inactive) | GI50 (KM12): > 100 µM (inactive) | GI50 (SK-MEL-28): > 100 µM (inactive) | GI50 (HL-60): > 100 µM (inactive) | GI50 (SNB-78): > 100 µM (inactive) | GI50 (HOP-62): > 100 µM (inactive) | GI50 (OVCAR-5): > 100 µM (inactive) | GI50 (SR): > 100 µM (inactive) | GI50 (HCT-116): > 100 µM (inactive) | GI50 (HOP-92): > 100 µM (inactive) | GI50 (LOX IMVI): > 100 µM (inactive) | GI50 (SF-295): > 100 µM (inactive) | GI50 (SF-268): > 100 µM (inactive) | GI50 (SNB-19): > 100 µM (inactive) | GI50 (OVCAR-8): > 100 µM (inactive) | GI50 (NCI-H460): > 100 µM (inactive) | GI50 (SK-MEL-2): 68.9 µM (inactive) | GI50 (786-0): > 100 µM (inactive)

CN(C)c1cccc(-c2cc(O)c3ccccc3n2)c1
GI50 (ACHN): > 100 µM (inactive) | GI50 (NCI-H522): 24.2 µM (inactive) | GI50 (COLO 205): 48.2 µM (inactive) | GI50 (RPMI-8226): 34.8 µM (inactive) | GI50 (M14): 43.3 µM (inactive) | GI50 (UO-31): 47.6 µM (inactive) | GI50 (UACC-62): 42 µM (inactive) | GI50 (DLD-1): 26.8 µM (inactive) | GI50 (M19-MEL): 76.7 µM (inactive) | GI50 (DMS-273): 45.9 µM (inactive) | GI50 (HT-29): 25.2 µM (inactive) | GI50 (U-251): 55.8 µM (inactive) | GI50 (HCC 2998): 40.4 µM (inactive) | GI50 (NCI-H23): 54.8 µM (inactive) | GI50 (EKVX): > 100 µM (inactive) | GI50 (K562): > 10 µM (inactive) | GI50 (Malme-3M): 31.7 µM (inactive) | GI50 (UACC-257): 31.9 µM (inactive) | GI50 (SW-620): 37 µM (inactive) | GI50 (IGROV-1): 80.9 µM (inactive) | GI50 (SF-539): 30.4 µM (inactive) | GI50 (TK-10): > 100 µM (inactive) | GI50 (SN12C): 47.8 µM (inactive) | GI50 (LXFL 529): 57.7 µM (inactive) | GI50 (A549): 57.3 µM (inactive) | GI50 (KM12): 34.4 µM (inactive) | GI50 (SK-MEL-28): 86.1 µM (inactive) | GI50 (CCRF-CEM): 41.7 µM (inactive) | GI50 (HL-60): 28.2 µM (inactive) | GI50 (SNB-78): 82 µM (inactive) | GI50 (HOP-62): 53.7 µM (inactive) | GI50 (MOLT-4): 61.5 µM (inactive) | GI50 (SR): 45.5 µM (inactive) | GI50 (LOX IMVI): 71.4 µM (inactive) | GI50 (HCT-15): 44.4 µM | GI50 (SNB-19): 39 µM (inactive) | GI50 (OVCAR-8): 75.9 µM (inactive) | GI50 (SK-OV-3): 68.1 µM (inactive) | GI50 (NCI-H460): 13.6 µM (inactive) | GI50 (786-0): 49.7 µM (inactive)

O=c1cc(NNc2cccc3ccccc23)[nH]c(=O)[nH]1
GI50 (ACHN): 16.5 µM (inactive) | GI50 (A498): 19.8 µM (inactive) | GI50 (NCI-H522): 14.8 µM (inactive) | GI50 (MCF7): 1.69 µM (inactive) | GI50 (COLO 205): 17.3 µM (inactive) | GI50 (RPMI-8226): 5.53 µM (inactive) | GI50 (M14): 15.9 µM (inactive) | GI50 (UO-31): 16.3 µM (inactive) | GI50 (UACC-62): 17.5 µM (inactive) | GI50 (CAKI-1): 14.7 µM (inactive) | GI50 (SK-MEL-5): 15.8 µM (inactive) | GI50 (SNB-75): 16.6 µM (inactive) | GI50 (OVCAR-3): 14 µM (inactive) | GI50 (HT-29): 17.6 µM (inactive) | GI50 (U-251): 14.6 µM (inactive) | GI50 (HCC 2998): 20 µM (inactive) | GI50 (NCI-H23): 15.3 µM (inactive) | GI50 (NCI/ADR-RES): 19.5 µM (inactive) | GI50 (PC-3): 13.8 µM (inactive) | GI50 (EKVX): 14.6 µM (inactive) | GI50 (RXF 393): 17.9 µM (inactive) | GI50 (BT-549): 16.4 µM (inactive) | GI50 (K562): 12.9 µM (inactive) | GI50 (Malme-3M): 17.8 µM (inactive) | GI50 (UACC-257): 15.7 µM (inactive) | GI50 (OVCAR-4): 17.2 µM (inactive) | GI50 (SW-620): 20 µM (inactive) | GI50 (IGROV-1): 15.4 µM (inactive) | GI50 (MDA-MB-435): 17.1 µM (inactive) | GI50 (SF-539): 15.6 µM (inactive) | GI50 (NCI-H226): 13 µM (inactive) | GI50 (MDA-MB-231): 13.3 µM (inactive) | GI50 (TK-10): 19.7 µM (inactive) | GI50 (SN12C): 16.2 µM (inactive) | GI50 (A549): 17.9 µM (inactive) | GI50 (KM12): 16.4 µM (inactive) | GI50 (SK-MEL-28): 18.6 µM (inactive) | GI50 (CCRF-CEM): 10.1 µM (inactive) | GI50 (HL-60): 2.9 µM (inactive) | GI50 (HOP-62): 17 µM (inactive) | GI50 (OVCAR-5): 17.2 µM (inactive) | GI50 (MOLT-4): 17.7 µM (inactive) | GI50 (SR): 2.61 µM (inactive) | GI50 (HCT-116): 17.4 µM (inactive) | GI50 (HOP-92): 17.4 µM (inactive) | GI50 (DU-145): 15.3 µM (inactive) | GI50 (T47D): 10.2 µM (inactive) | GI50 (LOX IMVI): 13.6 µM (inactive) | GI50 (Hs-578T): 26.2 µM (inactive) | GI50 (HCT-15): 12.4 µM | GI50 (MDA-N): 12.1 µM (inactive) | GI50 (SF-295): 17.5 µM (inactive) | GI50 (SF-268): 16.4 µM (inactive) | GI50 (SNB-19): 14.3 µM (inactive) | GI50 (OVCAR-8): 18 µM (inactive) | GI50 (SK-OV-3): 26.7 µM (inactive) | GI50 (NCI-H460): 18.8 µM (inactive) | GI50 (SK-MEL-2): 15 µM (inactive) | GI50 (786-0): 6.12 µM (inactive)
